Measurements: paper PMC9271048, “Probing strigolactone perception mechanisms with rationally designed small-molecule agonists stimulating germination of root parasitic weeds” (Nature Communications, 2022)

Experiments:
[1] = tested on: Arabidopsis thaliana (Col-0); assay: Arabidopsis root hair assay; type: in vivo; conditions: Col-0 seedlings on 1/2 MS medium, 1 μM; Supplementary Fig. 15; in µm (unit assumed)
Procedure: (§1) For Arabidopsis root hair assay, Arabidopsis thaliana (Col-0) seeds were surface sterilized by using 1% NaClO solution for 60 s and 75% ethanol solution for 60 s, and then washed by sterilized distilled water five times. The sterilized seeds were sowed on 1/2 MS media (2.202 g/L Murashige and Skoog basal salts, 0.5 g/L MES, 10 g/L sucrose, and 10 g/L agar, pH 5.7) which contained indicated concentrations of compounds. 0.1% DMSO was used as a negative control. The plates were placed 4 days at 4 °C and then placed vertically under fluorescent white light (100–150 μmol m^−2 s^−1) with 16 h light and 8 h dark at 20 ± 1 °C for 15 days[17],[55]. The root hairs were imaged by OLYMPUS (U-HGLGPS), and the lengths were analyzed by ImageJ. The experiments were repeated three times. For Arabidopsis shoot branching assay: Col-0 and max4-1 seeds were used in this experiment. Seeds surface sterilization was sterilized as described above. The Arabidopsis seedlings were placed on top of the cut black microcentrifuge tubes filled with 1/2 MS. The tubes were placed 4 days at 4 °C and then moved to fluorescent white light (100–150 μmol m^−2 s^−1) with 16 h light and 8 h dark at 20 ± 1 °C for 7 days[26]. The germinated seedlings were grown on hydroponic culture solutions (containing indicated concentrations of 4a, (R)- and (S)-4a), with the solution containing 0.01% DMSO as the negative control. The solutions were renewed every week. After 4 weeks, the numbers of rosette axillaries were analyzed.
type Arabidopsis. a, Representative primary root segments of Col-0 seedlings growing on 1/2 MS
medium with or without 1 μM tested chemicals. Scale bar, […]. b, The average length of root
hair is presented as means ± SD (n = 3 biologically independent experiments).
(1 picture or pasted object on this page, not shown here)

Striga hermonthica seeds = assay: S. hermonthica seed germination assay; type: in vivo; conditions: source data of Fig. 2d, average of 2 or 3; for EC50: Striga hermonthica, 48 h
Procedure: Two hundred mg of Striga hermonthica seeds were surface sterilized in 2% sodium hypochlorite containing 0.02% Tween-20 for 5 min, and then washed five times with sterile MilliQ water. The sterilized Striga seeds were spread on sterile glass fiber-filter papers (Whatman® GF/A, Sigma–Aldrich) in Petri dishes containing filter paper moistened with 3 mL sterile MilliQ water. The Petri dishes were incubated 6–8 days at 30 °C for preconditioning after which the seeds were dried in a laminar sterile air flow for 2 h. The germination bioassay was performed in 0.1% agarose and 0.1 ppm rac-GR24 was used as a positive control. Stocks of rac-GR24 and other compounds were prepared in acetone and diluted before use. Dried preconditioned seeds were added to the agarose containing the relevant compound, which was subsequently divided over three wells of a 12-well Cell Culture Treated Plates (Fisher Scientific, Landsmeer, the Netherlands). The plates were sealed and incubated in the dark at 30 °C for 2 days. The Striga germination rate in % (GR%) was calculated for each replicate using the formula: GR% = (Ngs/Nts) × 100, where Ngs is the number of germinated seeds per well and Nts is the total number of seeds per well. EC50 values of the compounds were calculated using http://www.ic50.tk/index.html.

max4-1 = assay: Arabidopsis shoot branching assay; type: in vivo, Arabidopsis thaliana; conditions: max4-1, 1 μM; Fig. 4c source data
Procedure: as §1

ShHTL7-SMAX1 interaction = assay: Yeast two-hybrid assay ShHTL7-SMAX1; type: cell-based, Striga hermonthica
Procedure: To construct plasmids for yeast two-hybrid assays, the CDS of ShHTL7 and AtD14 were cloned into yeast expression vector pBrigde to generate BD-ShHTL7 and BD-AtD14, and the CDS of ShMAX2, AtMAX2, SMAX1 were cloned into pGADT7 to make Gal4 DNA activation domain (AD) constructs, respectively. Primers used for yeast expression vector construction are listed in Supplementary Table 6. Yeast two-hybrid assays were performed using the Yeastmaker Yeast Transformation System 2 (Clontech). In brief, Yeast AH109 cells were co-transformed with specific bait and prey constructs and coated on selective growth medium SD/-Leu-Trp for 3 days at 30 °C, pick the positive constructs into liquid selective growth medium SD/-Leu-Trp shaking for 36 h at 30 °C. Washed yeast cells three times and diluted, made sure OD600 reached 2.5, then serial 10-fold dilutions of yeast cultures were spotted onto selective growth mediums that were supplemented with different concentrations of rac-GR24 and tested molecules, respectively. All yeast transformants were grown on a selective growth medium at 30 °C for 3 days.

ShHTL7 = ShHTL7 (Striga hermonthica, UniProt A0A0M3PNA2); assay: Mass spectrometric analysis of covalent modification of ShHTL7; type: biochemical; conditions: for mass increase of compound-treated ShHTL7 protein: Q-TOF MS of full-length protein, modification on His246; for covalent modification of ShHTL7: MS of compound-treated ShHTL7
Sequence of ShHTL7 (A0A0M3PNA2 entry or part of it): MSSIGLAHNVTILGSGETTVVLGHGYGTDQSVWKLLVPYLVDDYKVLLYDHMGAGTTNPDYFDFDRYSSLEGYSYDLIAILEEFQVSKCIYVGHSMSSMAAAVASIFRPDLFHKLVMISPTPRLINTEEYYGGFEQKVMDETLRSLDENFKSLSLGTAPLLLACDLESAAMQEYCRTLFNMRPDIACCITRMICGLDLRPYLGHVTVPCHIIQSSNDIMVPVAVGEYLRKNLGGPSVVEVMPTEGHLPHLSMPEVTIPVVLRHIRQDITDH
Text: This was consistent with the hydrolysis of natural and synthetic SLs, in which, the (2′R)-isomers are more prone to hydrolysis by ShHTL7 than the (2′S)-isomers[26],[40]. […] Based on the above observations, we inferred that (S)-4a may have similar biochemical properties as 2′R-configured SLs. We then examined whether (S)-4a binding, just as for rac-GR24, would result in a covalently linked molecule in ShHTL7 by using Q-TOF mass spectrometry (SYNAPT-G2-Si, Waters company) analysis. […] For (R)-4a and 4g, a weak peak (increase of 95 Da or 94 Da) of similar modification was found, respectively (Fig. 3). A similar modification was not observed in 4h and 4i treated samples (Supplementary Fig. 12b, c). To furtherly identify the specific modification of the increased mass of 94 Da or 95 Da, we incubated (R)-4a, (S)-4a, and 4g with ShHTL7, followed by gel digestion and MS/MS analysis. […] No covalently linked molecule presence was identified in 4h treated ShHTL7 (Supplementary Fig. 12b). We assume that this is due to the fact that the N-CH3 D-lactam modified His246 is more reactive, resulting in quick decomposition of the intermediate.
For LC-MS analysis: a 200 μL reaction solution (100 mM HEPES, 150 mM NaCl, pH 7.0) containing 10, or 400 μM of tested samples 4a, (R)- and (S)-4a, and 4g-i, and 100 μg of recombinant ShHTL7 or its mutants was incubated at 25 °C for 30 min. Subsequently, the solution was filtered and analyzed by a nanoACQUITY UPLC system, which was directly interfaced with an SYNAPT-G2-Si mass spectrometer produced by Waters Company. For LC-MS/MS analysis, the above chemicals treated ShHTL7 reaction solution was subjected to the SDS-PAGE analysis. The corresponding protein band around 30 KDa was excised, respectively, then digested with trypsin (Promega) in NH4HCO3 solution (50 mM) at 37 °C for 24 h[23],[26]–[28]. The covalent modification of C5H5O2/C6H6O on the peptide was analyzed by a Thermo-Dionex Ultimate 3000 HPLC system, which was directly interfaced with a Thermo Orbitrap Fusion Lumos mass spectrometer. MS-MS spectra are generated by pLabel software[53],[54].

Row | Compound | average length of root hair, source data average [1] | No. of axillary shoots, source data average (max4-1) | mass increase of compound-treated ShHTL7 protein (ShHTL7) | induction of ShHTL7-SMAX1 interaction (Y2H) (ShHTL7-SMAX1 interaction; 200 μM) | also measured
1 | CC1=C[C@H](O/C=C2/C(=O)O[C@@H]3c4ccccc4C[C@H]23)OC1=O (racemic) [rac-GR24, reference compound] | 474.342 |  |  |  | S. hermonthica germination EC50 values, source data average (Striga hermonthica seeds): 10.4655
2 | CC1=CC(OC(=O)N2CCN(C(=O)COc3ccc(Br)cc3C)CC2)OC1=O (stereo not drawn) [4a] | 163.912 | 3.5 |  |  | EC50 (Striga hermonthica seeds): 1.07 pM; induction of ShHTL7-SMAX1 interaction (Y2H) (ShHTL7-SMAX1 interaction; 1 μM): strongly induce the interaction
3 | CC1=CC(OC(=O)N2CCN(C(=O)COc3ccc(Br)cc3C)CC2)CC1=O (stereo not drawn) [4g] |  |  | 94 Da | only weak ligand-induced interactions | 
4 | CC1=CC(OC(=O)N2CCN(C(=O)COc3ccc(Br)cc3C)CC2)N(C)C1=O (stereo not drawn) [4h] |  |  |  |  | covalent modification of ShHTL7 (ShHTL7): not observed
5 | CC1=CC(CC(=O)N2CCN(C(=O)COc3ccc(Br)cc3C)CC2)OC1=O (stereo not drawn) [4i] |  |  |  | almost no ligand-induced interactions were observed | covalent modification of ShHTL7 (ShHTL7): not observed
6 | CC1=C[C@@H](OC(=O)N2CCN(C(=O)COc3ccc(Br)cc3C)CC2)OC1=O [(R)-4a] | 172.727 | 3.667 | 95 Da | did induce the interaction | EC50 (Striga hermonthica seeds): 1100 pM; induction of ShHTL7-SMAX1 interaction (Y2H) (ShHTL7-SMAX1 interaction; 1 and 5 μM): no ShHTL7-SMAX1 or ShHTL7-AtMAX2 interactions were detected
7 | CC1=C[C@H](OC(=O)N2CCN(C(=O)COc3ccc(Br)cc3C)CC2)OC1=O [(S)-4a] | 211.816 | 2.6 | 94 Da |  | induction of ShHTL7-SMAX1 interaction (Y2H) (ShHTL7-SMAX1 interaction; 1 μM): strongly induce the interaction
